Assay results published in US12240854B2, “TRAF 6 inhibitors” (Helmholtz Zentrum München - Deutsches Forschungszentrum für …, priority 2018, dated 2025).
Entries after “also recorded” stand apart in the source; their conditions may differ.

Legend:
MDM2 = target: T1, MDM2 (Homo sapiens, UniProt Q00987); test: In vitro ubiquitination assay, MDM2 ubiquitin ligase kit (p53 substrate); type: biochemical; settings: K48 chain formation
T1 construct: purchased Boston Biochem
Method: For analysis of cIAP1, MDM2, TRIM63, RNF4, ITCH and E6AP mediated poly-ubiquitination, the respective ubiquitin ligase kit from Boston Biochem (K-102, K-260, K-200B, K-220, K-240 and K-270) was used. Here, reaction buffer, E1, E2 and E3 enzyme (and p53 substrate in case of MDM2) were mixed and pre-incubated with compound or DMSO for 5 minutes at room temperature before adding Mg^2+-ATP and mono-ubiquitin for reaction start. Ubiquitination was visualized by Western Blot analyses.

hERG = target: T2, hERG (Homo sapiens, UniProt Q12809); test: ADME: hERG predictor assay; type: in vitro ADME
T2 construct: Bienta Enamine Biology Services
Method: (§1) All ADME (plasma stability, plasma protein binding, microsomal stability, Log D, Caco-2 assay, CYP450 inhibition and hERG predictor assay) as well as pharmacokinetic studies (Tmax, Cmax, AUC0-240min, Mean Residence Time, Elimination half life, Elimination rate constant, Volume of Distribution and Clearance) of C25-140 (compound 3) were conducted by Bienta Enamine Biology Services of Bienta/Enamine Ltd.

[1] = ADME: microsomal stability; type: in vitro ADME
Method: as §1

TRAF6 = target: T3, TRAF6 (Homo sapiens, UniProt Q9Y4K3); test: In vitro ubiquitination assay (Western blot), TRAF6 with Ubc13/Uev1a; type: biochemical
T3 construct: GST (N, cleaved yes); made in house; host or cells: E. coli BL21 codon plus RIPL (TRAF6); E1, E2 complex and ubiquitin from Boston Biochem
Method: The ability of TRAF6 to form K63-linked poly-ubiquitin chains in conjunction with Ubc13 was analyzed after compound treatment. Therefore, untagged TRAF6WT and TRAF6D57K, respectively were recombinantly purified. 0.125 μM of TRAF6 protein was pre-incubated with DMSO or compound in a total volume of 100 μL in K63 assay buffer ([…] Tris —HCl pH 7.6; […] MgCL2; […] creatine phosphate; 0.3 U/mL inorganic pyrophosphatase; 0.3 U/mL creatine phosphokinase) for 30 minutes at room temperature. Small aliquots for input samples were taken. A master mix containing 0.01 μM E1-activating enzyme (UBE1) (Boston Biochem), 0.2 μM E2-conjugating enzyme complex (Ubc13/Uev1a) (Boston Biochem), 1 mM ZnCl2, 2 mM ATP und 4 μM mono-ubiquitin (Boston Biochem) was added to the TRAF6 protein and the reaction mixture was incubated for 120 minutes at 37° C. The reaction was stopped by adding 4×SDS loading buffer and boiling at 95° C. for 5 minutes. The input samples were analyzed using the Pierce Silver Stain Kit (Thermo Fisher Scientific). Ubiquitination was detected in Western Blot analysis using an ubiquitin antibody.

[2] = target: T4, TRAF6-Ubc13 binding in HEK293T cells (Homo sapiens, UniProt Q9Y4K3); test: Co-immunoprecipitation of HA-TRAF6 and Ubc13 in HEK 293T cells; type: cell-based
T4 construct: RING-Zincfinger1 (RZ1) domain (residues 50-159) of human TRAF6 wildtype; expressed in transfected cells; host or cells: HEK 293T
T4 sequence (Q9Y4K3 50-159): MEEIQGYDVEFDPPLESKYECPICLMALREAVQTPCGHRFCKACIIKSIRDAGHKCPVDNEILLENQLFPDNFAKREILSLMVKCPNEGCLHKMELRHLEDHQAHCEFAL
Method: To study the interaction of TRAF6 and Ubc13 in cells, 1×10^6 293T cells were seeded and after 18 hours cells were transfected with 1 μg pEF-HA empty or pEF-HA-TRAF6 RZ1 plasmid using the X-tremeGENE HP DNA transfection reagent (Roche). 6 hours upon transfection, cells were treated with compound or DMSO. After 42 hours further incubation, cells were harvested in Co-IP lysis buffer and HA-TRAF6 was immunoprecipitated with anti-HA affinity matrix (Roche). Binding of Ubc13 to TRAF6 was examined in Western Blot analysis.

CYP450 = test: ADME: CYP450 inhibition; type: in vitro ADME
Method: as §1

[3] = ADME: plasma protein binding; type: in vitro ADME
Method: as §1

[4] = tested on: IKK kinase activity in Jurkat T-cells; test: IKK kinase assay in Jurkat T-cells; type: cell-based, human; settings: PMA/Ionomycin
Method: (§2) For MEF cells, 5.5×10^5 cells were seeded, then treated with compound for 6 hours and eventually stimulated with IL-1β or TNFα for 8 minutes. 1×10^6 Jurkat T-cells were treated with compound for 6 hours and finally stimulated with PMA (400 ng/ml) and lonomycin (600 ng/ml) for 8 minutes. After cell lysis in Co-IP lysis buffer (150 mM NaCl; 25 mM Hepes (pH 7.5); 0.2% NP-40; 1 mM Glycerol; 10 mM NaF; 8 mM β-Glycerophosphat; 1 mM DTT; 300 μM Sodium-vanadate; complete protease inhibitor), input samples were taken and the supernatant was then incubated with 6 μL IKKγ antibody FL-419 (Santa Cruz Biotechnology). Upon incubation with Protein-G-Sepharose beads (GE Healthcare), beads were washed in Co-IP wash buffer (150 mM NaCl; 25 mM Hepes (pH 7.5); 0.2% NP-40; 1 mM Glycerol) and transferred into kinase reaction buffer ([…] HEPES pH7.9; 10 mM MgCl2; 20 μM ATP; 20 mM β-Glycerophosphat; 200 μM Sodium-Vanadate; 1 mM DTT) supplemented with […] GST-IκBα (1-53) and 0.5 μL ^32P-γ-ATP. After 30 minutes incubation at 37° C., reaction was stopped and analyzed by autoradiography as well as Western Blot after separation on SDS-PAGE.

[5] = tested on: IKK kinase activity in MEF cells; test: IKK kinase assay in MEF cells; type: cell-based, mouse
Method: as §2

Jurkat T-cells = test: CellTiter-Glo viability assay, Jurkat T-cells; type: cell-based, human; settings: 6 or 24 hours incubation
Method: For cell viability experiments using the CellTiter-Glo® 2.0 system (Promega), MEF cells (1.2×10^3 cells/well), HepG2 cells (4×10^3 cells/well) and Jurkat T-cells (5×10^3 cells/well) were seeded in 384 well plates. After 18 hours, cells were treated with compounds using the Sciclone G3 automation system. After 6 or 24 hours incubation, the luciferase measurement was performed according to the manufacturer's manual.

T3 sequence (Q9Y4K3 with tags, fused parts or gaps): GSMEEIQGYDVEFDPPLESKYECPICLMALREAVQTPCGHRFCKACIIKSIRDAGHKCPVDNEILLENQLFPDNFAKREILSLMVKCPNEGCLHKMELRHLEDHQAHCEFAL
T1 sequence (Q00987 whole entry): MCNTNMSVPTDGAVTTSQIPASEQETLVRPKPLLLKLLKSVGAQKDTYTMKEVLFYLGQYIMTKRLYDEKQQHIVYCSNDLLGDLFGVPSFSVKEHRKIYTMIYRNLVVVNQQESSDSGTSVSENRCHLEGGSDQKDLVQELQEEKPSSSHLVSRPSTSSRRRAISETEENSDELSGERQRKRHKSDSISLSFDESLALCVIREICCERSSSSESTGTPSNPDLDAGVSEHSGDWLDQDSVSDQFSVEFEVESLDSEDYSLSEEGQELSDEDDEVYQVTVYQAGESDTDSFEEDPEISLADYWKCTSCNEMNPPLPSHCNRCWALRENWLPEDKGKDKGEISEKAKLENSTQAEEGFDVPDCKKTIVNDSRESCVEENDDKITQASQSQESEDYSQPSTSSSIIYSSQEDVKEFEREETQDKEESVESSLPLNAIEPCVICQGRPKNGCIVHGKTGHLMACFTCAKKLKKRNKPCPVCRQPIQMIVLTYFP
T2 sequence (Q12809 whole entry): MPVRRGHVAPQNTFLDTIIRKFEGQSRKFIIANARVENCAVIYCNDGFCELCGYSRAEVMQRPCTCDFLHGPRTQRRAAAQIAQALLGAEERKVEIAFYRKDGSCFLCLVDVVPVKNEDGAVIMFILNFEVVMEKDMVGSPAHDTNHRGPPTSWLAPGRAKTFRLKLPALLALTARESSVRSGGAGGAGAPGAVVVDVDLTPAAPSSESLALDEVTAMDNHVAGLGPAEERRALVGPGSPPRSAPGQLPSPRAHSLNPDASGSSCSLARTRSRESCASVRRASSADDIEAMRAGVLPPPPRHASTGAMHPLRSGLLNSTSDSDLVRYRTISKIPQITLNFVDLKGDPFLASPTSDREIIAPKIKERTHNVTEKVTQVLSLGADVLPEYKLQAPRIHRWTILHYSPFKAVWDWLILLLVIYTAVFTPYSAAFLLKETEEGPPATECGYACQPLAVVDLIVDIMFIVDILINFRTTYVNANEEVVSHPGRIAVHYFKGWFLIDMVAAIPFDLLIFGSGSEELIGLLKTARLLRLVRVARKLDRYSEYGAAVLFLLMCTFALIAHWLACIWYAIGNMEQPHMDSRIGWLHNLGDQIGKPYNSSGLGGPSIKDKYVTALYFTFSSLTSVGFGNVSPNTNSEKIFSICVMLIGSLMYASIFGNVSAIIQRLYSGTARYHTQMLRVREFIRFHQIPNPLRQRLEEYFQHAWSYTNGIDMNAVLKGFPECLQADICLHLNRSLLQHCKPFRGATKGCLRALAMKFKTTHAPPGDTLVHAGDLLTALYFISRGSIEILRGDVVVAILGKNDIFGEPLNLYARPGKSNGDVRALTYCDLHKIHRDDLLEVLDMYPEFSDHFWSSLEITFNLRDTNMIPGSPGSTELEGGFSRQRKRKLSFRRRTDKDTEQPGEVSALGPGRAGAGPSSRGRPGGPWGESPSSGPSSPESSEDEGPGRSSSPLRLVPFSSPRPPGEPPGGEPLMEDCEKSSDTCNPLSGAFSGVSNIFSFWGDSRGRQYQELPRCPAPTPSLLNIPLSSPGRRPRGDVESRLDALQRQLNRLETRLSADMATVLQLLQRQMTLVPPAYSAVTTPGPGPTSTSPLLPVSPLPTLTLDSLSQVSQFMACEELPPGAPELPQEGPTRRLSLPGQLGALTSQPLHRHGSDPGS

SMILES: Cc1nn(-c2ccc3nnc(C)n3n2)c(C)c1CCC(=O)N1CCC(Cc2ccccc2)CC1 [Example C25-140, 1-(4-Benzylpiperidin-1-yl)-3-(3,5-dimethyl-1-(3-methyl-[1,2,4]-triazolo-[4,3-b]-pyridazin-6-yl)-1H-pyrazol-4-yl)-propan-1-one]
- p53 ubiquitination by MDM2 (MDM2): not influenced; also recorded: not affected
- hERG inhibition (hERG): does not very much inhibit hERG
- microsomal stability [1]: stable
- ability of TRAF6 and Ubc13 to form free poly-ubiquitin chains (TRAF6): dose-dependently diminished TRAF6 E3 ligase activity; also recorded: dose-dependently impairs
- interaction of endogenous Ubc13 with HA-tagged TRAF6 (co-immunoprecipitation) [2]: reduced interaction; also recorded: most active analogs; also recorded: dose-dependently decreases; also recorded: demonstrated inhibition of TRAF6-Ubc13 binding
- CYP450 inhibition (CYP450): some inhibitory potential on selected CYPs
- plasma protein binding [3]: decent good plasma protein binding capacity
- IKK kinase activity [4]: reduced; also recorded: diminished
- IKK kinase activity, phosphorylation of IκBα ([5]; IL-1β stimulation): decreased IKK kinase activity; also recorded: decreased phosphorylation of IκBα
- IKK kinase activity, phosphorylation of IκBα ([5]; TNFα stimulation): also affects
- metabolic activity and cell viability (Jurkat T-cells): did not considerably impact cell viability; also recorded: does not considerably affect metabolic activity and cell viability up to 50 μM; also recorded: at the highest dose of 100 μM toxicity is noticeable
